# Read-outs that look alike come from different tables or passages of the source.
# Legend:
# Assay type in all cases: cell-based
# [1] = system: LPS-mediated prostaglandin E2 (PGE2) production in RAW264.7 cells; test: LPS-mediated PGE2 production in RAW264.7 murine macrophage model; details: LPS 1 μg/ml, NI = no inhibition
# Procedure: (§1) THIAA derivatives synthesized in Examples 1-19 were dissolved in dimethyl sufoxide (DMSO) and stored at −20° C. LPS was purchased from Sigma Chemicals (St. Louis, Miss.).
# (§2) The effect of the THIAA derivatives on LPS-mediated prostaglandin E2 (PGE2) and nitric oxide (NO) production was evaluated in a RAW264.7 murine macrophage model. The RAW 264.7 cell line was purchased from ATCC (Manassas, Va.) and maintained according to their instructions. Cells were grown and subcultured in 96-well plates at a density of 8×10^4 cells per well, and reached 80-90% confluence the next day. THIAA derivatives were added to the cells in serum-free medium at a final concentration of 0.1% DMSO. Following one hour of incubation with the THIAA derivatives, LPS (1 μg/ml) or DMEM medium alone was added to the cells and incubation was continued for 6 hours. Stimulation of RAW 264.7 cells with LPS (1 μg/ml) for 6 hours activated the production of PGE2 and NO. Supernatant media was collected for measurement of PGE2 levels. For NO, incubations were continued overnight. Supernatant media was collected for measurement of NO levels after 16 hours of stimulation. PGE2 levels were measured using assay kits from Assay Designs, (Ann Arbor, Mich.) and NO levels were measured using assay kits from Cayman Chemicals (Ann Harbor, Mich.).
# (§3) Results are summarized in Table 2, with data represented as % inhibition of inflammatory mediator production.
# [2] = system: LPS-mediated nitric oxide (NO) production in RAW264.7 cells; test: LPS-mediated NO production in RAW264.7 murine macrophage model; details: Mus musculus, LPS 1 μg/ml; for inhibition at 12.5 µM: 12.5 μM test compound, NI = no inhibition
# Procedure: as §1, §2, §3
# [3] = system: LPS-mediated IL-6 production in THP-1 cells; test: LPS-mediated IL-6 production in THP-1 cells; details: Homo sapiens; for inhibition at 12.5 µM: 12.5 μM test compound, THP-1 cells, LPS 1 μg/ml, NI = no inhibition
# Procedure: as §1
# (§4) The effect of the THIAA derivatives on LPS-mediated MMP-9, IL-1β, ([…], MCP-1, RANTES, and MIP-1α was evaluated in THP-1 cells. Stimulation of THP-1 cells with LPS (1 μg/ml) activated the production of MMP-9, IL-1β, MCP-1, RANTES, and MIP-1α.
# as §3
# [4] = system: LPS-mediated MCP-1 production in THP-1 cells; test: LPS-mediated MCP-1 production in THP-1 cells; details: Homo sapiens; for inhibition at 12.5 µM: 12.5 μM test compound, THP-1 cells, LPS 1 μg/ml, NI = no inhibition
# Procedure: as §1, §4, §3
# [5] = system: LPS-mediated MIP-1α production in THP-1 cells; test: LPS-mediated MIP-1α production in THP-1 cells; details: Homo sapiens; for inhibition at 12.5 µM: 12.5 μM test compound, THP-1 cells, LPS 1 μg/ml, NI = no inhibition
# Procedure: as §1, §4, §3
# [6] = system: LPS-mediated RANTES production in THP-1 cells; test: LPS-mediated RANTES production in THP-1 cells; details: Homo sapiens; for inhibition at 12.5 µM: 12.5 μM test compound, THP-1 cells, LPS 1 μg/ml, NI = no inhibition
# Procedure: as §1, §4, §3
# [7] = system: LPS-mediated inflammatory mediators in RAW264.7 and THP-1 cells; test: Mean inhibition across all six inflammatory mediators; details: for inhibition at 12.5 µM: 12.5 μM test compound
# Procedure: as §2, §4, §3
# Mean inhibition across all six inflammatory mediators was calculated for each of the THIAA derivatives.
# PPARα = target: T1, PPARα (Homo sapiens, UniProt Q07869); test: PPARα reporter assay (INDIGO Biosciences); details: for Emax at 12.5 µM: read-out: PPARα % GW590735 (20.6 nM)
# T1 sequence (Q07869 1-468): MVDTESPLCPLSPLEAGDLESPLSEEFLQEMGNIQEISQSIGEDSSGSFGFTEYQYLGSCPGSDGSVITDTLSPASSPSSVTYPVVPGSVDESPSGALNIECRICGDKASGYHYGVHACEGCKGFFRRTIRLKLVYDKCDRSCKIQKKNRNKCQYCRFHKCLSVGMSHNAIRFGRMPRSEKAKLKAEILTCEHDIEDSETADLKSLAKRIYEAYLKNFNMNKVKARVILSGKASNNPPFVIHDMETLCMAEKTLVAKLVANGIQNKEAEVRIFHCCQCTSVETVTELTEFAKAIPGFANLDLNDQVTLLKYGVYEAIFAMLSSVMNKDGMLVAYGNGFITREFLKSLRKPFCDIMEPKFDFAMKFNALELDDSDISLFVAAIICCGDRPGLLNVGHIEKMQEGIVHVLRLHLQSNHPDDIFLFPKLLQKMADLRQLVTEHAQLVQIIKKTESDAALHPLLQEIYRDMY
# Procedure: (§5) The functional effect of THIAA derivatives on PPARα and PPARγ activity was evaluated using a PPAR reporter assay (INDIGO Biosciences, Pa.). This assay utilizes non-human mammalian cells engineered to provide constitutive high level expression of PPARα, or PPARγ and containing a luciferase report gene specific to the appropriate PPAR. Following activation by agonist binding, PPAR induces expression of the luciferase reporter gene. Luciferase activity therefore provides a surrogate for measuring PPAR activity in agonist-treated cells.
# (§6) 0.1% DMSO was used as a solvent control for each assay. Plates were incubated for 20 hours in a humidified incubator at 37° C. and 5% CO2. After incubation, the cell medium was discarded and the cells were treated with 100 μL of luciferase detection reagent for 15 minutes. Plates were analyzed using a luminometer (Victor2, Perkin Elmer). Average relative light unit (RLU) and standard deviation were measured.
# PPARγ = target: T2, PPARγ (Homo sapiens, UniProt P37231); test: PPARγ reporter assay (INDIGO Biosciences); details: 20 h
# T2 sequence (P37231 1-505): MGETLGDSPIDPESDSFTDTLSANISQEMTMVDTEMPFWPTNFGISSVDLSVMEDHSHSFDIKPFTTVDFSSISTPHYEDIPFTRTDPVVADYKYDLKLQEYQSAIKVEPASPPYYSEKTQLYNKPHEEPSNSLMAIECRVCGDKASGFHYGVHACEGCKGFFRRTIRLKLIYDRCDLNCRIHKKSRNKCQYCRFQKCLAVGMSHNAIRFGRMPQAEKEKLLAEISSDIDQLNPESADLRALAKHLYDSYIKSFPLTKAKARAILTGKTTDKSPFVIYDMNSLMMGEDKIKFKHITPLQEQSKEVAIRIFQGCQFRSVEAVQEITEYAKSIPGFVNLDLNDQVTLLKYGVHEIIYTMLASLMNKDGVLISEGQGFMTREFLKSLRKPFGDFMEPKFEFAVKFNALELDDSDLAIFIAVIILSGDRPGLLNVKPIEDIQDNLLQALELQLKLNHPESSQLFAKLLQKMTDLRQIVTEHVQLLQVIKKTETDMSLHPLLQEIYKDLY
# Procedure: as §5, §6
# [8] = Mus musculus, RAW264.7, 6 h, 12.5 μM test compound
# [9] = 12.5 μM test compound, luciferase reporter cells, 20 hours, activity compared to GW590735
# [10] = read-out: PPARγ % rosiglitazone (500 nM), 12.5 μM test compound, luciferase reporter cells, 20 hours, activity compared to rosiglitazone
Compound,inhibition at 12.5 µM [3],inhibition at 12.5 µM [4],inhibition at 12.5 µM [5],inhibition at 12.5 µM [6],inhibition at 12.5 µM [7],"inhibition at 12.5 µM [1, 8]","inhibition at 12.5 µM ([2]; RAW264.7, 16 h)",Emax at 12.5 µM (PPARα; [9]),Emax at 12.5 µM (PPARγ; [10]),PPARα % GW590735 (20.6 nM) (PPARα; [9]),also measured
"CC(C)CCC(=O)[C@@]1(O)C([O-])=C(C(=O)CC(C)C)C(=O)[C@@H]1CCC(C)C.[K+] (stereo in doubt) [KDT501, Potassium salt of (+)-KDT500]",49%,77%,62%,77%,48%,–,–,–,–,–,"% inhibition of PGE2 production ([1]; 12.5 μM test compound, 6 hours): No inhibition (NI); inhibition at 12.5 µM ([2]; 16 hours): 23%; Emax at 12.5 µM (PPARα; 20 h): < 5%; Emax at 12.5 µM (PPARγ; read-out: PPARγ % rosiglitazone (500 nM)): 31%"
"Cc1nc(-c2ccc(C(F)(F)F)cc2)sc1C(=O)NCc1ccc(OC(C)(C)C(=O)O)cc1 [GW590735, reference compound]",–,–,–,–,–,–,–,–,–,–,"PPARα activity (positive control) (PPARα; GW590735 21-5000 nM, luciferase reporter cells, 20 hours): increased the activity"
"CO/N=C(/CC(C)C)C1=C(O)[C@](O)(/C(CCC(C)C)=N/OC)[C@@H](CCC(C)C)C1=O [KDT0001/2, (4R,5R)-3,4-dihydroxy-2-(N-methoxy-3-methylbutanimidoyl)-4-(N-methoxy-4-methylpentanimidoyl)-5-(3-methylbutyl)cyclopent-2-en-1-one]",60%,74%,< 20%,45%,39%,55%,< 0%,< 5%,< 5%,–,–
"CO/N=C(/CC(C)C)C1=C(O)[C@](O)(C(O)CCC(C)C)[C@@H](CCC(C)C)C1=O (stereo partly drawn) [KDT0005, (4R,5R)-3,4-dihydroxy-4-(1-hydroxy-4-methylpentyl)-2-(N-methoxy-3-methylbutanimidoyl)-5-(3-methylbutyl)cyclopent-2-en-1-one]",< 20%,38%,20%,25%,< 20%,< 0%,< 0%,< 5%,< 5%,–,–
"CC(C)CCC(=O)[C@@]1(O)C(=O)/C(=C(\CC(C)C)NCCO)C(=O)[C@@H]1CCC(C)C [KDT0017, (4R,5R)-4-hydroxy-2-{1[(2-hydroxyethyl)amino]-3-methylbutylidene}-5-(3-methylbutyl)-4-(4-methylpentanoyl)cyclopentane-1,3-dione]",50%,80%,< 0%,< 0%,23%,< 0%,< 20%,< 5%,< 5%,–,–
"CN/C(CC(C)C)=C1\C(=O)[C@H](CCC(C)C)[C@@](O)(C(=O)CCC(C)C)C1=O [KDT0020, (4R,5R)-4-hydroxy-5-(3-methylbutyl)-2-[3-methyl-1-(methylamino)butylidene]-4-(4-methylpentanoyl)cyclopentane-1,3-dione]",70%,82%,< 20%,35%,46%,75%,< 20%,< 5%,< 5%,–,–
"CC(C)CCC(=O)[C@@]1(OC(=O)C(C)(C)C)C(O)=C(C(=O)CC(C)C)C(=O)[C@@H]1CCC(C)C [KDT0033, (1S,5R)-2-hydroxy-3-(3-methylbutanoyl)-5-(3-methylbutyl)-1-(4-methylpentanoyl)-4-oxocyclopent-2-en-1-yl 2,2-dimethylpropanoate]",87%,100%,95%,97%,~90%,–,> 50%,< 5%,≥ 5%,no effect,–
"CC(C)CCC(=O)[C@@]1(OC(=O)CC(C)(C)C)C(O)=C(C(=O)CC(C)C)C(=O)[C@@H]1CCC(C)C [KDT0034, (1S,5R)-2-hydroxy-3-(3-methylbutanoyl)-5-(3-methylbutyl)-1-(4-methylpentanoyl)-4-oxocyclopent-2-en-1-yl 3,3-dimethylbutanoate]",84%,100%,94%,98%,~90%,–,> 50%,9%,5%,dual PPARα and PPARγ agonists,–
"CC(C)CCC(=O)[C@@]1(OC(=O)OCC(C)C)C(O)=C(C(=O)C(C)C)C(=O)[C@@H]1CCC(C)C [KDT0037, (1S,5R)-2-hydroxy-5-(3-methylbutyl)-1-(4-methylpentanoyl)-3-(2-methylpropanoyl)-4-oxocyclopent-2-en-1-yl 2-methylpropyl carbonate]",61%,98%,22%,83%,72%,–,–,< 5%,–,no effect,–
"CN(CCOc1ccc(CC2SC(=O)NC2=O)cc1)c1ccccn1 (stereo not drawn) [Rosiglitazone, reference compound]",–,–,–,–,–,–,–,–,–,–,"inhibition at 10 µM ([1]; Mus musculus, RAW264.7, 6 h, 10 μM (rosiglitazone)): < 0%; inhibition at 10 µM ([2]; RAW264.7, 16 h, 10 μM (rosiglitazone)): 6%; inhibition at 10 µM ([3]; THP-1): < 0%; inhibition at 10 µM ([4]; THP-1): < 0%; inhibition at 10 µM ([5]; THP-1): < 0%; inhibition at 10 µM ([6]; THP-1): 24%; inhibition at 10 µM ([7]; 10 μM (rosiglitazone)): < 20%"

# Source: patent US10343977B2, “Tetrahydro-isohumulone derivatives, methods of making and using” (KINDEX PHARMACEUTICALS, INC., priority 2012, dated 2019)
